Source: PubChem BioAssay (NCI)
Values joined by “and” are separate entries in the source; they are usually repeats but may differ in a detail not shown here. Equal values may be shown once.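 Following 48 hours of exposure in 96-well plates, responses at five concentrations were used to interpolate endpoints linearly. At the GI50, growth is halved. TGI: concentration producing complete growth inhibition.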

Experiments:
Assay in all cases: NCI anticancer screen, dose series, 48 h
LOX IMVI melanoma = tested on: LOX IMVI melanoma
LXFL 529 NSCLC = tested on: LXFL 529 NSCLC
M19-MEL melanoma = tested on: M19-MEL melanoma
OVCAR-4 ovarian = tested on: OVCAR-4 ovarian
SNB-78 CNS = tested on: SNB-78 CNS
SW-620 colon = tested on: SW-620 colon
MCF7 breast = tested on: MCF7 breast

SMILES	TGI (LOX IMVI melanoma)	TGI (LXFL 529 NSCLC)	TGI (M19-MEL melanoma) [µM]	TGI (OVCAR-4 ovarian)	TGI (SNB-78 CNS)	TGI (SW-620 colon) [µM]	GI50 (LOX IMVI melanoma) [µM]	GI50 (LXFL 529 NSCLC) [µM]	GI50 (M19-MEL melanoma) [µM]	GI50 (OVCAR-4 ovarian) [µM]	GI50 (SNB-78 CNS) [µM]	GI50 (SW-620 colon) [µM]	TGI (MCF7 breast) [µM]
O=S(=O)(O)CS(=O)(=O)OCCCl	> 100 µM	> 100 µM	> 100	> 100 µM	> 100 µM	> 100	–	–	–	–	–	–	–
Cn1ncc2cc3c(Nc4ccc(Cl)cc4)cccc3nc21	41.4 µM	42.7 µM	43.9	40 µM	> 100 µM	48.8	–	–	–	–	–	–	–
CCOC(=O)Cc1c(Cc2[nH]c(C(=O)OCc3ccccc3)c(CC(=O)OCC)c2CC(=O)OCC)[nH]c(C(=O)OCc2ccccc2)c1CC(=O)OCC	–	> 100 µM	> 100	–	> 100 µM	> 100	–	–	–	–	–	–	–
O/N=C1/C(=C/c2ccc(F)cc2)CCCC1C(NO)c1ccc(F)cc1 (stereo unspecified)	–	> 100 µM	> 100	> 100 µM	> 100 µM	> 100	–	–	–	–	–	–	–
Cc1c(NC(=O)C(=O)N=NC(=O)c2ccncc2)c(O)c2ccccc2c1O	19.1 µM	28.2 µM	3.23	27.5 µM	39.7 µM	33	–	–	–	–	–	–	–
N[C@H]1C2C3CC4C5CC(C42)C1(c1ccccc1)C53 (stereo partly specified)	> 100 µM	> 100 µM	> 100	> 100 µM	> 100 µM	> 100	–	–	–	–	–	–	–
O=[N+]([O-])c1ccc(-c2ccc(/C=N/n3c(-c4ccc(Cl)cc4)n[nH]c3=S)o2)cc1	> 100 µM	> 71.1 µM	> 55.8	> 61.8 µM	> 70.3 µM	> 68.5	–	–	–	–	–	–	–
CCOC(=O)C1C=C2O[C@@H]3OC4(CCCCC4)O[C@@H]3C2[C@H]2C(=O)C=CC(=O)[C@@]12C(=O)OC (stereo partly specified)	32.9 µM	22.9 µM	31.4	23.3 µM	19.3 µM	28.6	–	–	–	–	–	–	–
O=C1C2=C(c3ccccc31)C(c1ccc(Cl)cc1)N1C(=O)CCSC1=N2 (stereo unspecified)	–	> 100 µM	> 100	> 100 µM	–	> 100	–	–	–	–	–	–	–
CCOC(=O)CCC(NC(=O)c1ccc(N=Cc2nc3cc(C(F)(F)F)ccc3nc2-c2ccccc2)cc1)C(=O)OCC (stereo unspecified)	50 µM and > 100 µM	50 µM and > 100 µM	> 100	50 µM and > 100 µM	32 µM and 98.8 µM	> 100	> 100	> 100	> 100	> 100	18.1	> 100	–
CCOC(=O)/N=c1\ss/c(=N\C(=S)N(C)C)n1-c1ccccc1	> 100 µM	> 100 µM	–	–	> 100 µM	> 100	–	–	> 100	> 100	–	> 100	–
O=C1C2=C(c3ccccc31)C(c1cccc(Cl)c1)NC(=S)N2 (stereo unspecified)	–	> 100 µM	> 100	> 100 µM	–	> 100	–	–	–	–	–	–	–
C/C(=N\NC(=S)Nc1ccc(C(=O)O)cc1)c1ccccn1	> 100 µM	> 100 µM	49.7	29.5 µM	> 100 µM	39.1	–	–	–	–	–	–	–
Cc1cc(Br)cc(C)c1NC(=O)C(=O)CC(=O)c1sc(-n2nc(-c3ccccc3)cc2-c2ccccc2)nc1C	> 100 µM	> 100 µM	> 100	> 100 µM	> 100 µM	> 100	–	–	–	–	–	–	–
NNC(=O)/C(=C/c1cccc([N+](=O)[O-])c1)NC(=O)c1ccccc1	> 100 µM	> 100 µM	> 100	> 100 µM	> 100 µM	> 100	–	–	–	–	–	–	–
COc1c(OC(C)=O)ccc(/C=C2\N=C(C)OC2=O)c1[N+](=O)[O-]	> 100 µM	> 100 µM	> 100	> 100 µM	> 100 µM	> 100	–	–	–	–	–	–	–
CC(C)=CC(=O)CC(=O)C(=O)Nc1ccc(C)c(C)c1	> 100 µM	> 100 µM	> 100	–	> 100 µM	> 100	–	–	–	–	–	–	–
Cc1cc(C)nc(NS(=O)(=O)c2ccc(Nc3c4ccccc4nc4c(C(=O)Nc5ccc(S(N)(=O)=O)cc5)cccc34)cc2)n1	> 100 µM	> 100 µM	> 100	> 100 µM	> 100 µM	> 100	–	–	–	–	–	–	–
COC1C=C(Nc2cccc(Cl)c2)C(=O)C1 (stereo unspecified)	> 100 µM	> 100 µM	> 100	> 100 µM	> 100 µM	> 100	–	–	–	–	–	–	–
NC(N)=NS(=O)(=O)c1ccc(NC(=O)c2cccc3c(Nc4ccc(S(=O)(=O)N=C(N)N)cc4)c4ccc(Cl)cc4nc23)cc1	> 100 µM	> 100 µM	–	> 100 µM	> 100 µM	> 100	–	–	–	–	–	–	–
CC(=O)O[C@H]1C(=O)[C@@]2(C)C([C@H](OC(=O)c3ccccc3)[C@]3(O)C[C@H](OC(=O)[C@H](O)[C@H](NC(=O)c4ccccc4)c4ccc(Cl)cc4)C(C)=C1C3(C)C)C1(OC(C)=O)CO[C@@H]1C[C@@H]2O (stereo partly specified)	55.9 µM	26 µM	–	22.1 µM	–	18.3	–	–	–	–	–	–	–
COc1ccc(-c2oc3cc(O)c(OC)c(O)c3c(=O)c2OC2OC(CO)C(O)C(O)C2O)cc1 (stereo unspecified)	> 100 µM	> 100 µM	> 100	> 100 µM	> 100 µM	> 100	–	–	–	–	–	–	–
CNC(=O)OCc1nc(SC(C)C)n(C)c1COC(=O)NC	> 100 µM	> 100 µM	> 100	> 100 µM	> 100 µM	> 100	–	–	–	–	–	–	> 100
CC1=C(C(=O)Nc2ccc([N+](=O)[O-])cc2)C(c2ccco2)C(C(=O)Nc2ccc([N+](=O)[O-])cc2)=C(C)N1	> 100 µM	> 100 µM	77.2	46.7 µM	78.8 µM	> 100	–	–	–	–	–	–	–
